Measurements: patent US5827871A, “Medicaments 1,2,3,4-tetrahydrocarbazoles and 5-HT1 agonist use thereof” (priority 1991, dated 1998)
Counter-ions that a name gives are not always drawn.

target: 5-HT1-like receptor (Canis lupus familiaris, UniProt P79250); experiment: 5-HT1-like receptor screen, dog saphenous vein contraction; conditions: contraction of dog saphenous vein helicoids, 37° C., in presence of ketanserin, prazosin, atropine, mepyramine, cocaine and ascorbate; EC50 estimated from concentration-effect curve
Sequence (P79250 whole entry): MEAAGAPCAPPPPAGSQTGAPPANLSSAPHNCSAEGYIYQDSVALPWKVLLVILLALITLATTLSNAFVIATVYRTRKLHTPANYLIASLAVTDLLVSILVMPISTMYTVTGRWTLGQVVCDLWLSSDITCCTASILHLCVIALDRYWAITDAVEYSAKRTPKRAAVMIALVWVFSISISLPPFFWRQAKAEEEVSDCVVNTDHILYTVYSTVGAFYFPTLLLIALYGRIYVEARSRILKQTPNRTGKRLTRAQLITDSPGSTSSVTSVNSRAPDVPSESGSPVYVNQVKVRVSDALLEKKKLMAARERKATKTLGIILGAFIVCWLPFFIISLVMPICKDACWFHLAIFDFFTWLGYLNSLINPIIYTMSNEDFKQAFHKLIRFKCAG
Procedure: 5-HT1 -like Receptor Screen
Helicoids of dog saphenous vein were set up at 37° C. in modified Krebs solution at a resting force of 10 mN. The solution also contained 1 μmol/l each of ketanserin prazosin, atropine and mepyramine, 6 μmol/l cocaine and 200 μmol/l ascorbate. Nearly […] contractions were measured with force transducers on a polygraph. The tissues were exposed twice to 5-hydroxytryptamine (5-HT) 2 μmol/l followed by washes. A cumulative concentration-effect curve was determined, followed by a curve to 5-HT in the presence of the highest used concentration of test compound. Contractions caused by the test compound were compared with those caused by 5-HT. The intrinsic activity of the test compound was calculated as the ratio of the maximum test compound-induced effect over the effect caused by 2 μmol/l 5-HT. The EC50 of the test compound was estimated from the corresponding effect curve. When appropriate equilibrium dissociation constants Kp were estimated by the method of Marano & Kaumann (1976, J. Pharmacol. Exp. Ther. 198, 518-525).

SMILES | EC50 [µM]
CNC1CCc2[nH]c3ccc(C(N)=O)cc3c2C1 (stereo not shown) [Example 24, 3-Methylamino-6-carboxamido-1,2,3,4-tetrahydrocarbazole hydrochloride] | 0.1 to 15
CNS(=O)(=O)Cc1ccc2[nH]c3c(c2c1)CC(N)CC3 (stereo not shown) [Example 11, 3-Amino-6-(N-methylsulphonamidomethyl)-1,2,3,4-tetrahydrocarbazole oxalate] | 0.1 to 15
CC(=O)Nc1ccc2[nH]c3c(c2c1)CC(N)CC3 (stereo not shown) [Example 21, 3-Amino-6-(acetamido)-1,2,3,4-tetrahydrocarbazole oxalate] | 0.1 to 15
N#CCc1ccc2[nH]c3c(c2c1)CC(N)CC3 (stereo not shown) [Example 10, 3-Amino-6-cyanomethyl-1,2,3,4-tetrahydrocarbazole oxalate] | 0.1 to 15

target: T1, 5-HT1-like receptor (Oryctolagus cuniculus, UniProt P49144); experiment: 5-HT1-like receptor screen, rabbit isolated basilar artery contraction; conditions: isometric tension of endothelium-denuded rabbit basilar artery rings, in presence of ascorbate, indomethacin, cocaine, ketanserin and prazosin
T1 construct: from tissue; host or cells: rabbit basilar artery (endothelium-denuded ring segments)
T1 sequence (P49144 whole entry): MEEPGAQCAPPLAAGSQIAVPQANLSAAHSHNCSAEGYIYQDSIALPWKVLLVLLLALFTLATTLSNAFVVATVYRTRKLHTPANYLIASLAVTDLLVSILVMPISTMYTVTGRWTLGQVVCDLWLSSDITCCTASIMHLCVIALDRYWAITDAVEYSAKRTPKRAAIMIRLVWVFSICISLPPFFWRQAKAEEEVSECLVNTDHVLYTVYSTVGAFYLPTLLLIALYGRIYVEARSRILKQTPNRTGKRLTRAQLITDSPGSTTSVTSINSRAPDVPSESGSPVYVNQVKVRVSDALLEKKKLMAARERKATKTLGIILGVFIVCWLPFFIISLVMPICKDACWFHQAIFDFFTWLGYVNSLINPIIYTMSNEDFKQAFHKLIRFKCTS
Procedure: Experiments were performed in intracranial arteries from rabbit isolated basilar artery in a similar method to one described previously (Parsons and Whalley, 1989. Eur J Pharmacol 174, 189-196.).
In brief, rabbits were killed by overdose with anaesthetic (sodium pentobarbitone). The whole brain was quickly removed and immersed in ice cold modified Kreb's solution and the basilar artery removed with the aid of a dissecting microscope. The Krebs solution was of the following composition (mM) Na^+ (120); K^+ (5); Ca^2+ (2.25); Mg^2+ (0.5); Cl^- (98.5); SO4^2- (1); EDTA (0.04), equilibrated with 95% O2 /5% CO2. The endothelium was removed by a gentle rubbing of the lumen with a fine metal wire. Arteries were then cut into ring segments (ca 4-5 mm wide) and set up for recording of isometric tension in 50 ml tissue baths in modified Krebs solution with the additional supplement of (mM); […] (20); fumarate (10); pyruvate (5); L-glutamate (5) and glucose (10). The arteries were then placed under a resting force of 3-4 mN maintained at 37° C. and the solution bubbled with 95% O2 /5% CO2.
After tests for initial reactivity with 90 mM KCl depolarising solution and for lack of acetylcholine-induced relaxation of 5-HT ([…]) precontraction, cumulative concentration-effect curves ([…]) to 5-HT were constructed in the presence of ascorbate […], cocaine […], indomethacin […], ketanserin […] and prazosin […].
Following a 45-60 min wash period, cumulative concentration-effect curves to the test compounds or 5-HT (as a time match control) were constructed in the presence of ascorbate, indomethacin, cocaine, ketanserin and prazosin.

SMILES | EC50 [µM]
NC(=O)c1ccc2[nH]c3c(c2c1)CC(NCc1ccccc1)CC3 (stereo not shown) [Example 29, 3-Benzylamino-6-carboxamido-1,2,3,4-tetrahydrocarbazole oxalate] | 0.04 to 15
CNC1CCc2[nH]c3ccc(C(N)=O)cc3c2C1 (stereo not shown) [Example 24, 3-Methylamino-6-carboxamido-1,2,3,4-tetrahydrocarbazole hydrochloride] | 0.04 to 15
NC1CCc2[nH]c3ccc(S(N)(=O)=O)cc3c2C1 (stereo not shown) [Example 15, 3-Amino-6-sulphonamido-1,2,3,4-tetrahydrocarbazole oxalate] | 0.04 to 15
